Results published in PubChem BioAssay (NCI).
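Compound exposure: 48 hours, 5 concentrations, 96-well plates. GI50 marks 50% less growth. Definition used: TGI = concentration required for complete inhibition of growth.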

Columns and labels:
Test in all cases: NCI-60 cell line screen, 48 h
[1] = system: SK-MEL-28 melanoma
[2] = system: ACHN renal
[3] = system: OVCAR-5 ovarian
[4] = system: SNB-75 CNS
[5] = system: COLO 205 colon
[6] = system: OVCAR-3 ovarian
[7] = system: UACC-62 melanoma
[8] = system: SF-295 CNS
[9] = system: K-562 leukemia
[10] = system: EKVX NSCLC
[11] = system: NCI-H522 lung
[12] = system: IGROV1 ovarian
[13] = system: BT-549 breast
[14] = system: NCI-H226 lung
[15] = system: NCI-H460 lung
[16] = system: CCRF-CEM leukemia
[17] = system: OVCAR-4 ovarian
[18] = system: SR leukemia
[19] = system: LOX IMVI melanoma
[20] = system: UO-31 renal
[21] = system: MDA-MB-468 breast
[22] = system: SK-MEL-5 melanoma
[23] = system: DU-145 prostate
[24] = system: 786-0 renal
[25] = system: HCT-15 colon
[26] = system: MCF7 breast
[27] = system: NCI-H23 lung
[28] = system: SF-539 CNS
[29] = system: OVCAR-8 ovarian
[30] = system: HL-60(TB) leukemia
[31] = system: T-47D breast
[32] = system: RXF 393 renal
[33] = system: A549 NSCLC
[34] = system: MDA-MB-435
[35] = system: HOP-92 NSCLC
[36] = system: SF-268 CNS
[37] = system: PC-3 prostate
[38] = system: HCC-2998 colon
[39] = system: SW-620 colon
[40] = system: U251 CNS
[41] = system: M14 melanoma
[42] = system: TK-10 renal
[43] = system: SK-OV-3 ovarian
[44] = system: SN12C renal
[45] = system: MALME-3M melanoma
[46] = system: A498 renal
[47] = system: HS 578T breast
[48] = system: UACC-257 melanoma
[49] = system: HCT-116 colon
[50] = system: HT29 colon
[51] = system: HOP-62 NSCLC
[52] = system: KM12 colon
[53] = system: CAKI-1 renal
[54] = system: RPMI-8226 leukemia
[55] = system: MDA-MB-231 breast
[56] = system: MOLT-4 leukemia
[57] = system: SNB-19 CNS

Cc1sc(C(NC(=O)OCCn2c([N+](=O)[O-])cnc2C)C(F)(F)Cl)nc1-c1ccc(OC(F)(F)F)cc1 (centres undefined)
GI50 [1]: 4.84 µM | TGI [1]: 17.1 µM | GI50 [2]: 3.04 µM | TGI [2]: 11.3 µM | GI50 [3]: 4.28 µM | TGI [3]: 17.6 µM | GI50 [4]: 1.43 µM | TGI [4]: 14.2 µM | GI50 [5]: 5.8 µM | TGI [5]: 21.3 µM | GI50 [6]: 3.68 µM | TGI [6]: 13.3 µM | GI50 [7]: 3.53 µM | TGI [7]: 15.4 µM | GI50 [8]: 3.26 µM | TGI [8]: 13.7 µM | GI50 [9]: 3.62 µM | TGI [9]: > 100 µM | GI50 [10]: 2.8 µM | TGI [10]: 12.6 µM | GI50 [11]: 3.82 µM | TGI [11]: 15.3 µM | GI50 [12]: 6.15 µM | TGI [12]: 19.5 µM | GI50 [13]: 5.57 µM | TGI [13]: 18.6 µM | GI50 [14]: 3.78 µM | TGI [14]: 16.7 µM | GI50 [15]: 3.31 µM | TGI [15]: > 100 µM | GI50 [16]: 2.32 µM | TGI [16]: 16.4 µM | GI50 [17]: 3.85 µM | TGI [17]: 15.7 µM | GI50 [18]: 3.58 µM | TGI [18]: 30.6 µM | GI50 [19]: 3.42 µM | TGI [19]: 13.6 µM | GI50 [20]: 2.77 µM | TGI [20]: 13.5 µM | GI50 [21]: 2.37 µM | TGI [21]: 8.73 µM | GI50 [22]: 3.89 µM | TGI [22]: 14.7 µM | GI50 [23]: 4.97 µM | TGI [23]: 17.9 µM | GI50 [24]: 7.35 µM | TGI [24]: 20.7 µM | GI50 [25]: 3.19 µM | TGI [25]: 12.1 µM | GI50 [26]: 2.68 µM | TGI [26]: 10.3 µM | GI50 [27]: 7.46 µM | TGI [27]: 22.7 µM | GI50 [28]: 9.15 µM | TGI [28]: 21.4 µM | GI50 [29]: 7.09 µM | TGI [29]: 22.6 µM | GI50 [30]: 4.06 µM | TGI [30]: 24.1 µM | GI50 [31]: 3.11 µM | TGI [31]: 12.8 µM | GI50 [32]: 2.65 µM | TGI [32]: 12.6 µM | GI50 [33]: 4.57 µM | TGI [33]: 20.4 µM | GI50 [34]: 3.87 µM | TGI [34]: 15.5 µM | GI50 [35]: 2.86 µM | TGI [35]: 11.6 µM | GI50 [36]: 3.6 µM | TGI [36]: 16.3 µM | GI50 [37]: 2.65 µM | TGI [37]: 14.8 µM | GI50 [38]: 4.8 µM | TGI [38]: 17 µM | GI50 [39]: 7.32 µM | TGI [39]: > 100 µM | GI50 [40]: 5.38 µM | TGI [40]: 19.2 µM | GI50 [41]: 4.56 µM | TGI [41]: 18.2 µM | GI50 [42]: 3.96 µM | TGI [42]: 15.8 µM | GI50 [43]: 12 µM | TGI [43]: 26.2 µM | GI50 [44]: 4.47 µM | TGI [44]: 15.9 µM | GI50 [45]: 6.79 µM | TGI [45]: 21.8 µM | GI50 [46]: 4.98 µM | TGI [46]: 20.6 µM | GI50 [47]: 2.55 µM | TGI [47]: 33 µM | GI50 [48]: 7.75 µM | TGI [48]: 22.5 µM | GI50 [49]: 4.78 µM | TGI [49]: 20.1 µM | GI50 [50]: 3.56 µM | TGI [50]: 13 µM | GI50 [51]: 8.7 µM | TGI [51]: 23.9 µM | GI50 [52]: 3.63 µM | TGI [52]: 14.7 µM | GI50 [53]: 2.83 µM | TGI [53]: 11.8 µM | GI50 [54]: 3.41 µM | TGI [54]: 54.6 µM | GI50 [55]: 3.37 µM | TGI [55]: 12.3 µM | GI50 [56]: 3.74 µM | TGI [56]: 16.5 µM | GI50 [57]: 4.93 µM | TGI [57]: 17.4 µM
